This passage reports IC50 results from PMC10788917 (Journal of Medicinal Chemistry, 2023).

Positions count from the first letter of the chain named.

Holding throughout (assay): HDAC8 mutant biochemical assay
Assay [1] addresses T1, HDAC8 Cys102Ser/Cys153Ser/Cys244Ser (Homo sapiens, UniProt Q9BY41, C102S/C153S/C244S).
T1 construct: made in house
T1 sequence (Q9BY41 1-377 C102S/C153S/C244S): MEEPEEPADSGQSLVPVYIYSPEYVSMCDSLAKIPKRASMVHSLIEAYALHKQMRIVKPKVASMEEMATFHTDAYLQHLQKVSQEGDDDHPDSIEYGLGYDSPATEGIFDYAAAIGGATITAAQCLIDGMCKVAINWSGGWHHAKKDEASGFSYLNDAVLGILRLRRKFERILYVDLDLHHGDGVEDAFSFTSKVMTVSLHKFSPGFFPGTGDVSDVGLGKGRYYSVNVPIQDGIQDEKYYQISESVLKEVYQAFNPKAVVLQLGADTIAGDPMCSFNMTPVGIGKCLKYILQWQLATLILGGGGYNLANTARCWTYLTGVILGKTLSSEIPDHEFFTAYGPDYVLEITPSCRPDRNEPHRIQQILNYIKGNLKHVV
The note with it: read-out: IC50 [μM] @ 100 nM HDAC8: E Cys102Ser/Cys153Ser/Cys244Ser, 1 h preincubation. As to the method:
(§1) HDAC8 mutant variants were generated, produced, and further purified as described previously.[32] Cysteines 28 and 314 were exchanged with serine using the following primer pairs: HD8_C28S_for, […]; HD8_C28S_rev, […]; HD8_C314S_for, […]; HD8_C314S_rev, […].
(§2) The enzyme activity assay was performed in assay buffer [25 mM Tris-HCl (pH 8.0), 50 mM NaCl, and 0.001% (v/v) Pluronic F-68] in black half-area 96-well microplates (Greiner Bio-One). For the initial screening, 10 nM HDAC8 was preincubated with the indicated compounds at 250 μM for 2 h at 30 °C. […] The reaction was initiated by the addition of 20 μM Boc-Lys(TFA)-AMC (Bachem). After substrate conversion at 30 °C for 15 min for HDAC8 and 1 h for HDAC8 mutants and HDAC4, the reaction was stopped by adding 1.67 μM suberoylanilide trifluoromethylketone (SATFMK). The deacetylated substrate was cleaved with 0.42 mg/mL trypsin to release fluorescent 7-amino-4-methylcoumarin (AMC), which was detected with a microplate reader (PHERAstar FS […]) with fluorescence excitation at 360 nm and emission at 460 nm. IC50 values were calculated by generating dose–response curves in GraphPad Prism 6 and fitting those to a four-parameter logistic model.

Assay [2] has as its target T2, HDAC8 Cys102Ser/Cys153Ser/Cys314Ser (Homo sapiens, UniProt Q9BY41, C102S/C153S/C314S).
T2 construct: made in house
T2 sequence (Q9BY41 1-377 C102S/C153S/C314S): T1 sequence (Q9BY41 1-377 C102S/C153S/C244S) with S244C, C314S
As to conditions: read-out: IC50 [μM] @ 100 nM HDAC8: H Cys102Ser/Cys153Ser/Cys314Ser, 1 h preincubation. As for the experimental part: as §1, §2

For assay [3], the target named is T3, HDAC8 Cys102Ser/Cys153Ser/Cys125Ser (Homo sapiens, UniProt Q9BY41, C102S/C125S/C153S).
T3 construct: made in house
T3 sequence (Q9BY41 1-377 C102S/C125S/C153S): T1 sequence (Q9BY41 1-377 C102S/C153S/C244S) with C125S, S244C
As to conditions: read-out: IC50 [μM] @ 100 nM HDAC8: C Cys102Ser/Cys153Ser/Cys125Ser, 1 h preincubation. As to the method:
as §1, §2

Assay [4] deals with T4, HDAC8 Cys102Ser/Cys153Ser/Cys352Ser (Homo sapiens, UniProt Q9BY41, C102S/C153S/C352S).
T4 construct: made in house
T4 sequence (Q9BY41 1-377 C102S/C153S/C352S): T1 sequence (Q9BY41 1-377 C102S/C153S/C244S) with S244C, C352S
The note with it: read-out: IC50 [μM] @ 100 nM HDAC8: I Cys102Ser/Cys153Ser/Cys352Ser, 1 h preincubation. As for the experimental part:
as §1, §2

Consider `C[n+]1ccccc1I` [A3+], for which the IC50 in assay [1] is greater than 130 µM; in assay [2], 92 ± 10 µM; in assay [3] it was 65 ± 6 µM; in assay [4], 36 ± 2 µM.
Take `C[n+]1ccc(I)cc1` [C3+]: the IC50 was greater than 130 µM in assay [1], 14 µM in assay [2], 81 ± 4 µM in assay [3] and 29 ± 2 µM in assay [4].
In the same order, the values of `C#Cc1cc[n+](C)cc1` [C6+] are 24 ± 3 µM, 100 ± 14 µM, 15 ± 1 µM and 9 ± 1 µM.
On the same counts, the results for `C[n+]1cccnc1Cl` [D1+] are greater than 130 µM, greater than 130 µM, 82 ± 4 µM and 41 ± 7 µM.
With `C[n+]1cccnc1Br` [D2+], the IC50 was greater than 130 µM in assay [1], greater than 130 µM in assay [2], 52 ± 7 µM in assay [3] and 15 ± 2 µM in assay [4].
With `C[n+]1cccnc1I` [D3+], the IC50 in assay [1] was determined as 40 ± 6 µM; in assay [2] it was 20 ± 1 µM; in assay [3] it was 14 ± 1 µM; in assay [4], 11 ± 1 µM.
Take `C#Cc1nccc[n+]1C` [D6+]: the results for the IC50 in assay [1], in assay [3] and in assay [4] were greater than 130 µM, greater than 130 µM and 118 ± 13 µM, respectively.
As for `C[n+]1cncc(Br)c1` [F2+], the IC50 came to 87 ± 7 µM in assay [1], 74 ± 11 µM in assay [2], 56 ± 5 µM in assay [3] and 15 ± 1 µM in assay [4].
As to `C[n+]1cncc(I)c1` [F3+], the values for the IC50 in assay [1], in assay [2] and in assay [4] were 26 ± 4 µM, 19 ± 2 µM and 29 ± 6 µM, respectively.
Take `C#Cc1c[n+](C)ccn1` [G6+]: the IC50 is 100 ± 12 µM in assay [1], greater than 130 µM in assay [2], 126 ± 17 µM in assay [3] and 59 ± 3 µM in assay [4].
